The record followed here is ChEMBL document CHEMBL1649509, “Lon protease is essential for paradoxical survival of Escherichia coli exposed to high concentrations of quinolone” (Antimicrob Agents Chemother, 2009).

Each structure is given as a SMILES string. The source made the active and inactive calls. The rule behind the calls is not given here.

Type in all cases: functional, organism-based
The test system of assay [1] is Escherichia coli. Briefly: Antibacterial activity against Escherichia coli K-12 harboring lon lexA3 mutant gene.
In assay [2] the test system is Escherichia coli. The experiment in a line: Antibacterial activity against Escherichia coli K-12 harboring gyrA67/gyrB225 mutant gene.
Assay [3] deals with Escherichia coli. The experiment in a line: Antibacterial activity against lon-deficient Escherichia coli KD2372.
The subject of assay [4] is Escherichia coli. Briefly: Antibacterial activity against Escherichia coli K-12 harboring lon sulA double mutant gene.
Assay [5] concerns Escherichia coli. Briefly: Antibacterial activity against Escherichia coli K-12 by viscometric assay.
The subject of assay [6] is Escherichia coli. Briefly: Antibacterial activity against lon-deficient Escherichia coli KD2372 by viscometric assay.

Regarding `CCn1cc(C(=O)O)c(=O)c2ccc(C)nc21`, the outcome in the assay with Escherichia coli [1], in the assay on Escherichia coli [2], with Escherichia coli [3], in the assay on Escherichia coli [4] and with Escherichia coli [6] was Active. Also, in the assay on Escherichia coli [5], the result was inactive.
